Holding throughout (assay): growth of human tumour cells (NCI), 48 h
Assay [1] relates to A498.
In assay [2] the test system is ACHN.
In assay [3] the test system is CAKI-1.
The subject of assay [4] is EKVX.
The test system of assay [5] is HOP-62.
In assay [6] the test system is LOX IMVI.
For assay [7], the system named is OVCAR-3.
The subject of assay [8] is OVCAR-8.
In assay [9] the test system is RPMI-8226.
In assay [10] the test system is SK-MEL-2.
The test system of assay [11] is SNB-19.
For assay [12], the system named is SR.
Assay [13] deals with SW-620.
Assay [14] deals with TK-10.
Assay [15] deals with UACC-257.
For assay [16], the system named is UACC-62.
The subject of assay [17] is A549.

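Growth conditions: 96-well plates. Treatment: test compound, 48 hours, 5 concentrations. Analysis: linear interpolation between bracketing concentrations; unreached endpoints set to highest concentration. GI50 is the concentration that inhibits growth by half.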 Active and inactive are the calls of the source. No stated cut-off is given here; in the data, active = GI50 up to about 1.1 µM and inactive = higher.

Turning to `CCc1cccc(C)c1NC(=O)C(=O)Cc1nc2ccccc2o1`, the GI50 in [1], in assay [2], in [3], in [4], in assay [5] and in assay [6] was > 100 µM (inactive) throughout. Besides, the GI50 in [7], in assay [8], in assay [9], in assay [10], in [11] and in assay [12] was > 100 µM (inactive) each time. For the same compound, the GI50 in assay [13], in assay [14], in assay [15] and in [16] was > 100 µM (inactive) in each case.

For the compound `O=C1C2C(C(=O)N1O)N(Cc1ccccc1)C(=O)N2Cc1ccccc1` (configuration not stated), the GI50 in [1], in [17], in assay [2], in assay [3], in assay [4] and in assay [5] was > 100 µM (inactive) throughout. The GI50 in [6], in assay [7], in [8], in [9], in assay [11] and in assay [12] was > 100 µM (inactive) in each case. In addition, the GI50 in assay [13], in assay [14], in [15] and in assay [16] was > 100 µM (inactive) in each case.

For `O=C(Cc1ccccc1)NN1C(=O)C(Cl)C1c1cc(Br)cc(Br)c1O` (configuration not stated), the GI50 in assay [17] is 15.9 µM (inactive); in [2], 6.35 µM (inactive); in [3] it was 25.8 µM (inactive); in assay [4], 7.76 µM (inactive); in assay [5], 14 µM (inactive); in [6] it was 9.95 µM (inactive). Moreover, the GI50 in assay [7] was 2.71 µM (inactive); in assay [8], 8.87 µM (inactive); in assay [9] it was 6.81 µM (inactive); in [10] it was 15.1 µM (inactive); in assay [11], 8.34 µM (inactive); in [12], 0.794 µM (active). The GI50 in assay [13] was 7.14 µM (inactive); in assay [14] it was 17.8 µM (inactive); in [15], 11.5 µM (inactive); in assay [16], 10.3 µM (inactive).

Turning to `C#CC1(O)c2ccccc2C(=O)c2ccccc21`, the GI50 in assay [1] was 10.9 µM (inactive); in assay [17] it was > 100 µM (inactive); in assay [2] it was > 100 µM (inactive); in assay [3], > 100 µM (inactive); in [4], > 100 µM (inactive); in [5] it was > 100 µM (inactive). In addition, the GI50 in assay [6], in [8], in [10], in assay [11], in assay [12] and in [13] was > 100 µM (inactive) in each case. Besides, the GI50 in [14] and in [15] was > 100 µM (inactive) throughout.

Consider `CC(C)C(=O)Nc1nc2c(ncn2C2OC(CO)C(O)C2O)c(=O)[nH]1` (configuration not stated), for which the GI50 in [1], in assay [17], in [2], in assay [3], in [4] and in assay [5] was > 100 µM (inactive) throughout. Moreover, the GI50 in assay [6], in [7], in assay [8], in assay [9], in assay [10] and in assay [12] was > 100 µM (inactive) each time. Further, the GI50 in assay [13], in assay [14], in [15] and in [16] was > 100 µM (inactive) in each case.

`C/C(=C\C(=O)Nc1ccc2[nH]nnc2c1)Nc1ccc2[nH]nnc2c1`: the GI50 in [1], in [17], in assay [2], in assay [3], in assay [4] and in [5] was > 100 µM (inactive) in each case. In addition, the GI50 in assay [6], in assay [7], in [8], in assay [9], in assay [11] and in [12] was > 100 µM (inactive) throughout. Besides, the GI50 in assay [13], in assay [14], in [15] and in assay [16] was > 100 µM (inactive) throughout.

For the compound `OC1/C(=C/c2ccccc2)CNC/C1=C\c1ccccc1` (configuration not stated), the GI50 in assay [1] was > 100 µM (inactive); in [17], > 100 µM (inactive); in assay [2], > 100 µM (inactive); in assay [3], 43.1 µM (inactive); in assay [4] it was > 100 µM (inactive); in assay [5], > 100 µM (inactive). The GI50 in assay [6], in [7], in assay [8], in assay [9], in assay [11] and in assay [12] was > 100 µM (inactive) each time. Moreover, the GI50 in assay [13], in [14], in [15] and in assay [16] was > 100 µM (inactive) each time.

Regarding `O=Cc1ccc2c(c1-c1c(C=O)ccc3c1OCO3)OCO2`, the GI50 in assay [1], in [17], in assay [2], in [3], in assay [4] and in assay [5] was > 100 µM (inactive) each time. Also, the GI50 in assay [7] was > 100 µM (inactive); in assay [8], > 100 µM (inactive); in assay [9] it was 96.6 µM (inactive); in assay [10], > 100 µM (inactive); in assay [11], > 100 µM (inactive); in assay [12] it was > 100 µM (inactive). In addition, the GI50 in assay [13], in [14], in assay [15] and in [16] was > 100 µM (inactive) each time.

Consider `COc1ccc2c(c1)CCc1c(-c3n[nH]c4c3CCc3cc(OC)ccc3-4)n[nH]c1-2`, for which the GI50 in [1] is 27.6 µM (inactive); in [17], 30.3 µM (inactive); in assay [2], 29.9 µM (inactive); in assay [3], 24.4 µM (inactive); in assay [4], 31.3 µM (inactive); in assay [5] it was 24 µM (inactive). For the same compound, the GI50 in [6] is 17.9 µM (inactive); in [8], 37.8 µM (inactive); in [10], 43.9 µM (inactive); in [11] it was 76.9 µM (inactive); in assay [12] it was 38.1 µM (inactive); in assay [13], 17.9 µM (inactive). Further, the values for the GI50 in [14], in assay [15] and in assay [16] were > 100 µM (inactive), 21.5 µM (inactive) and 23.5 µM (inactive), respectively.

Consider `O=[N+]([O-])c1nccn1CC(O)c1ccc(F)cc1` (configuration not stated), for which the GI50 in assay [1], in assay [17], in assay [2], in [3], in assay [4] and in assay [5] was > 100 µM (inactive) each time. Besides, the GI50 in [6], in assay [7], in assay [8], in assay [9], in [10] and in assay [11] was > 100 µM (inactive) each time. In addition, the GI50 in assay [13], in [14], in assay [15] and in [16] was > 100 µM (inactive) in each case.

In the case of `CC(C)(O)[C@@H]1CCC(C)([C@H]2[C@@H](O)CC3(C)C4CC(OC5OC(CO)C(O)C(O)C5O)C5C(C)(C)[C@@H](OC6OCC(O)C(O)C6O)CC[C@@]56C[C@@]46CC[C@]23C)O1` (some centres not stated), the GI50 in [17], in assay [2], in assay [4], in assay [6], in assay [7] and in assay [8] was > 100 µM (inactive) in each case. The GI50 in assay [9], in assay [10], in [11], in [12], in assay [13] and in assay [14] was > 100 µM (inactive) each time. Also, the GI50 in [15] and in [16] was > 100 µM (inactive) each time.

As for `CCN(CC)CCNc1ccc2nnn3c4ccc(OC)cc4c(=O)c1c23`, the GI50 in assay [1] is 13.3 µM (inactive); in assay [17], 5.56 µM (inactive); in assay [2], 4.71 µM (inactive); in assay [3] it was 12.2 µM (inactive); in [5], 11.1 µM (inactive); in [6], 2.22 µM (inactive). In addition, the GI50 was 13.5 µM (inactive) in assay [7]; 4.31 µM (inactive) in assay [8]; 2.82 µM (inactive) in [9]; 14.2 µM (inactive) in [10]; 11.4 µM (inactive) in assay [11]; 1.59 µM (inactive) in assay [12]. The GI50 is 3.58 µM (inactive) in assay [13], 9.25 µM (inactive) in assay [14], 12.5 µM (inactive) in assay [15] and 12.9 µM (inactive) in [16].

Values taken from ChEMBL document CHEMBL1201862, “PubChem BioAssay data set” (2004).
